Laboratory results as given in US10865216B2, “Tricyclic Gyrase inhibitors” (MERCK SHARP & DOHME CORP., priority 2012, dated 2020).

System: S. aureus ATCC 13709 + mouse serum
Assay: MIC, SA + serum (S. aureus ATCC 13709, MHCA + mouse serum)
Assay type: cell-based
Settings: Table 14; R2 is a 5 membered heterocycle
`CCOC(=O)c1csc(Nc2nc(N3C[C@H]4C[C@@H]3C[C@H]4N)c3c(n2)[nH]c2c(NC)cc(F)cc23)n1` [drawing 1760] showed an SA+ serum MIC of over 16 µg/mL. Work on `CNc1cc(F)cc2c1[nH]c1nc(Sc3nc(Br)cs3)nc(N3CC4CC(N)C4C3)c12` (stereo not drawn) yielded an SA+ serum MIC of at most 0.5 µg/mL. Work on `CNc1cc(F)cc2c1[nH]c1nc(Sc3nc(C(=O)OC)cs3)nc(N3CC4CC(N)C4C3)c12` (stereo not drawn) yielded an SA+ serum MIC of 2 µg/mL. In the case of `CNc1cc(F)cc2c1[nH]c1nc(Sc3nc4ccccc4s3)nc(N3C[C@H]4C[C@@H]3C[C@H]4N)c12`, the SA+ serum MIC is reported as 4 µg/mL. For `CNc1cc(F)cc2c1[nH]c1nc(Sc3nc(C(=O)O)cs3)nc(N3CC4CC(N)C4C3)c12` (stereo not drawn), the SA+ serum MIC was 2 µg/mL. With `CNc1cc(F)cc2c1[nH]c1nc(Sc3nncs3)nc(N3C[C@H]4C[C@@H]3C[C@H]4N)c12` [drawing 1754] the SA+ serum MIC was at most 0.5 µg/mL. For `CNc1cc(F)cc2c1[nH]c1nc(Sc3nnc(C)s3)nc(N3C[C@H]4C[C@@H]3C[C@H]4N)c12`, the SA+ serum MIC was at most 0.5 µg/mL.

System: not given
Assay: not given
Settings: from CN(C(=O)OC(C)(C)C)c1cc(F)cc2c1[nH]c1nc(Oc3cnc(SCC(=O)O)nc3)nc(NCCCCCCN)c12; amide bond; BOP, then EDC (Et3N); DCM/NMP; 30.0 mM; 40.0 °C; 3.0 h
In the case of `CN(C(=O)OC(C)(C)C)c1cc(F)cc2c1[nH]c1nc3nc(c12)NCCCCCCNC(=O)CSc1ncc(cn1)O3`, the ring closure, yield of all isomers is reported as 72%.

Same assay, conditions: from CN(C(=O)OC(C)(C)C)c1cc(F)cc2c1[nH]c1nc(Oc3cncc(C(=O)O)c3)nc(NCCCCCCN)c12; amide bond; BOP, then EDC (Et3N); DCM/NMP; 18.5 mM; 40.0 °C; 3.0 h
Work on `CN(C(=O)OC(C)(C)C)c1cc(F)cc2c1[nH]c1nc3nc(c12)NCCCCCCNC(=O)c1cncc(c1)O3` yielded a ring closure, yield of all isomers of 74%.

Same assay, conditions: from CNc1cc(F)cc2c1[nH]c1nc(Oc3cc(C#N)cc(OCC(=O)O)c3)nc(N3CC(CN)C3)c12; amide bond; BOP, EDC (Et3N); DCM/NMP (1:1); 40.0 mM; 40.0 °C; 2.0 h
In the case of `CNc1cc(F)cc2c1[nH]c1nc3nc(c12)N1CC(CNC(=O)COc2cc(C#N)cc(c2)O3)C1`, the ring closure, yield of all isomers is reported as 17%.

Same assay, conditions: from CNc1cc(F)cc2c1[nH]c1nc(Oc3cnc(SCC(=O)O)nc3)nc(N[C@H](CN)COCCCN)c12; amide bond; BOP, then EDC (Et3N); DCM/NMP (1:1); 38.5 mM; 40.0 °C; 3.0 h
With `CNc1cc(F)cc2c1[nH]c1nc3nc(c12)N[C@H](CN)COCCCNC(=O)CSc1ncc(cn1)O3` the ring closure, yield of all isomers was 57%.

System: S. aureus ATCC 13709
Assay: MIC, S. aureus ATCC 13709
Assay type: cell-based
Settings: S. aureus; Alamar Blue read after overnight incubation at 35° C.
In the case of `CNc1cc(F)cc2c1[nH]c1nc(Oc3cnc(C(C)O)nc3)nc(N3CC4(CCC4N)C3)c12` (stereo not drawn) [Compound 4.410], the “MIC Sa” value is reported as at most 0.5 µg/mL.

Same assay, conditions: Table 10; Sa = S. aureus
With `CNc1cc(F)cc2c1[nH]c1nc(Oc3cnc(C(C)O)nc3)nc(N3CC4(CCC4N)C3)c12` (stereo not drawn) [Compound 4.410] the “Sa MIC” value was at most 0.5 µg/mL.

Same assay, conditions: Table 14; R2 is a 5 membered heterocycle
`CCOC(=O)c1csc(Nc2nc(N3C[C@H]4C[C@@H]3C[C@H]4N)c3c(n2)[nH]c2c(NC)cc(F)cc23)n1` [drawing 1760] showed an SA MIC of at most 0.5 µg/mL. For `CNc1cc(F)cc2c1[nH]c1nc(Sc3nc(Br)cs3)nc(N3CC4CC(N)C4C3)c12` (stereo not drawn), the SA MIC was at most 0.5 µg/mL. In the case of `CNc1cc(F)cc2c1[nH]c1nc(Sc3nc(C(=O)OC)cs3)nc(N3CC4CC(N)C4C3)c12` (stereo not drawn), the SA MIC is reported as at most 0.5 µg/mL. Work on `CNc1cc(F)cc2c1[nH]c1nc(Sc3nc4ccccc4s3)nc(N3C[C@H]4C[C@@H]3C[C@H]4N)c12` yielded an SA MIC of 1 µg/mL. For `CNc1cc(F)cc2c1[nH]c1nc(Sc3nc(C(=O)O)cs3)nc(N3CC4CC(N)C4C3)c12` (stereo not drawn), the SA MIC was at most 0.5 µg/mL. In the case of `CNc1cc(F)cc2c1[nH]c1nc(Sc3nncs3)nc(N3C[C@H]4C[C@@H]3C[C@H]4N)c12` [drawing 1754], the “SA MIC” value is reported as <≤ 0.5. In the case of `CNc1cc(F)cc2c1[nH]c1nc(Sc3nnc(C)s3)nc(N3C[C@H]4C[C@@H]3C[C@H]4N)c12`, the SA MIC is reported as at most 0.5 µg/mL.

System: E. coli ATCC 25922
Assay: MIC, E. coli ATCC 25922
Assay type: cell-based
Settings: E. coli; Alamar Blue read after overnight incubation at 35° C.
In the case of `CNc1cc(F)cc2c1[nH]c1nc(Oc3cnc(C(C)O)nc3)nc(N3CC4(CCC4N)C3)c12` (stereo not drawn) [Compound 4.410], the “MIC Ec” value is reported as at most 0.5 µg/mL.

Same assay, conditions: Table 10; Ec = E. coli, strain not stated
With `CNc1cc(F)cc2c1[nH]c1nc(Oc3cnc(C(C)O)nc3)nc(N3CC4(CCC4N)C3)c12` (stereo not drawn) [Compound 4.410] the “Ec MIC” value was at most 0.5 µg/mL.

Same assay, conditions: Table 14; R2 is a 5 membered heterocycle; EC8 not defined
`CCOC(=O)c1csc(Nc2nc(N3C[C@H]4C[C@@H]3C[C@H]4N)c3c(n2)[nH]c2c(NC)cc(F)cc23)n1` [drawing 1760] gave an EC8 MIC of 1 µg/mL. `CNc1cc(F)cc2c1[nH]c1nc(Sc3nc(Br)cs3)nc(N3CC4CC(N)C4C3)c12` (stereo not drawn) gave an EC8 MIC of at most 0.5 µg/mL. Work on `CNc1cc(F)cc2c1[nH]c1nc(Sc3nc(C(=O)OC)cs3)nc(N3CC4CC(N)C4C3)c12` (stereo not drawn) yielded an EC8 MIC of at most 0.5 µg/mL. Work on `CNc1cc(F)cc2c1[nH]c1nc(Sc3nc4ccccc4s3)nc(N3C[C@H]4C[C@@H]3C[C@H]4N)c12` yielded an EC8 MIC of 16 µg/mL. `CNc1cc(F)cc2c1[nH]c1nc(Sc3nc(C(=O)O)cs3)nc(N3CC4CC(N)C4C3)c12` (stereo not drawn) gave an EC8 MIC of over 16 µg/mL. Work on `CNc1cc(F)cc2c1[nH]c1nc(Sc3nncs3)nc(N3C[C@H]4C[C@@H]3C[C@H]4N)c12` [drawing 1754] yielded an EC8 MIC of at most 0.5 µg/mL. Work on `CNc1cc(F)cc2c1[nH]c1nc(Sc3nnc(C)s3)nc(N3C[C@H]4C[C@@H]3C[C@H]4N)c12` yielded an EC8 MIC of at most 0.5 µg/mL.

System: S. pneumoniae ATCC 51916
Assay: MIC, S. pneumoniae ATCC 51916
Assay type: cell-based
Settings: Table 10; Spn = S. pneumoniae
For `CNc1cc(F)cc2c1[nH]c1nc(Oc3cnc(C(C)O)nc3)nc(N3CC4(CCC4N)C3)c12` (stereo not drawn) [Compound 4.410], the “Spn MIC” value was at most 0.5 µg/mL.

System: P. aeruginosa ATCC 15692
Assay: MIC, P. aeruginosa ATCC 15692
Assay type: cell-based
Settings: Table 10; Pa = P. aeruginosa
For `CNc1cc(F)cc2c1[nH]c1nc(Oc3cnc(C(C)O)nc3)nc(N3CC4(CCC4N)C3)c12` (stereo not drawn) [Compound 4.410], the “Pa MIC” value was 1 µg/mL.

System: K. pneumoniae ATCC 700603
Assay: MIC, K. pneumoniae ATCC 700603
Assay type: cell-based
Settings: Table 10; Kpn = K. pneumoniae
For `CNc1cc(F)cc2c1[nH]c1nc(Oc3cnc(C(C)O)nc3)nc(N3CC4(CCC4N)C3)c12` (stereo not drawn) [Compound 4.410], the “Kpn MIC” value was 2 µg/mL.

System: A. baumannii ATCC 19606
Assay: MIC, A. baumannii ATCC 19606
Assay type: cell-based
Settings: Table 10; Ab = A. baumannii, strain not stated
For `CNc1cc(F)cc2c1[nH]c1nc(Oc3cnc(C(C)O)nc3)nc(N3CC4(CCC4N)C3)c12` (stereo not drawn) [Compound 4.410], the “Ab MIC” value was 2 µg/mL.
